This is an account of results in ChEMBL document CHEMBL5625189, “Discovery of new diaryl ether inhibitors against Mycobacterium tuberculosis targeting the minor portal of InhA” (Eur J Med Chem, 2023).

Converted amounts (≈) assume the structure as drawn. Some results are limits rather than exact numbers.

Common to all, as to type: functional
What all share (details): 432 h, time 18 day

Experiment [1] has as its system Mycobacterium tuberculosis. Briefly: Antimycobacterial activity against Mycobacterium tuberculosis H37Ra harbouring pMV261 plasmid assessed as inhibition of bacterial growth incubated for 18 days by drop dilution method.
Experiment [2] relates to Mycobacterium tuberculosis. As to the kind of experiment: Antimycobacterial activity against Mycobacterium tuberculosis H37Ra harbouring pVV2 plasmid assessed as inhibition of bacterial growth incubated for 18 days by drop dilution method.
Experiment [3] deals with Mycobacterium tuberculosis. Briefly: Antimycobacterial activity against Mycobacterium tuberculosis H37Ra harbouring pVV2 plasmid overexpressing katG assessed as inhibition of bacterial growth incubated for 18 days by drop dilution method.
Experiment [4] relates to Mycobacterium tuberculosis. As to the kind of experiment: Antimycobacterial activity against Mycobacterium tuberculosis H37Ra harbouring pMV261 plasmid overexpressing InhA assessed as inhibition of bacterial growth incubated for 18 days by drop dilution method.
Experiment [5] concerns Mycobacterium tuberculosis. As to the kind of experiment: Antimycobacterial activity against Mycobacterium tuberculosis H37Ra harbouring pVV16 plasmid overexpressing hadABC assessed as inhibition of bacterial growth incubated for 18 days by drop dilution method.

In the case of `Cc1cc(=O)oc2cc(OCc3cn(Cc4ccc(Oc5ccccc5)c(O)c4)nn3)ccc12`, the MIC came to 1.25 µM (≈ 0.569 µg/mL) in experiment [1]; 1.25 µM (≈ 0.569 µg/mL) in experiment [2]; 1.25 µM (≈ 0.569 µg/mL) in experiment [3]; 12.5 µM (≈ 5.69 µg/mL) in experiment [4]; 1.25 µM (≈ 0.569 µg/mL) in experiment [5].

In the case of `CCCCCCc1ccc(Oc2ccc(Cn3cc(CNc4ccc([N+](=O)[O-])c5nonc45)nn3)cc2)c(O)c1`, the MIC in experiment [1], in experiment [2], in experiment [3], in experiment [4] and in experiment [5] was 2.5 µM (≈ 1.36 µg/mL) throughout.

For `CCN(CC)c1ccc2c(OCc3cn(Cc4ccc(Oc5ccccc5)c(O)c4)nn3)cc(=O)oc2c1`, the minimum inhibitory concentration (MIC) is 6.25 µM (≈ 3.2 µg/mL) in experiment [1]; 6.25 µM (≈ 3.2 µg/mL) in experiment [2]; 6.25 µM (≈ 3.2 µg/mL) in experiment [3]; greater than 25 µM in experiment [4]; 6.25 µM (≈ 3.2 µg/mL) in experiment [5].

As a reminder, the MIC is the smallest concentration in the dilution series that meets the test's criterion for growth inhibition.
